Results taken from patent US20140303164A1, “THERAPEUTIC COMPOUNDS” (Gilead Sciences, Inc., priority 2013, published 2014).

Key:
HIV-IIIb = assay: Test A: Antiviral Assay in MT4 Cells; assay type: cell-based, HIV-1; settings: Human immunodeficiency virus 1, IIIB, MT4, 120 h; for inhibition at 0.2 µM: read-out: % inhibition at 0.2 μM; for inhibition at 2 µM: read-out: % inhibition at 2 μM
Procedure: Test A: Antiviral Assay in MT4 Cells
MT-4 cells were next mixed with HIV-IIIb at an m.o.i of 0.003 for 1 hour, after which time 35 μL of virus/cell mixture (2000 cells) was immediately added to each well containing 40 μL of diluted compound. The plates were then incubated at 37° C. for 5 days. […] Cell lysis was carried out by incubating at room temperature for 10 min and then chemiluminescence was read.

[1] = Test B: Cytotoxicity Assay; assay type: cell-based; settings: human, uninfected MT-4 cells, same protocol as Test A
How it was run: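 Uninfected MT-4 cells (2000 per well) incubated with diluted compound at 37° C. for 5 days, following the antiviral protocol without HIV-IIIb.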

| SMILES | inhibition at 0.2 µM (HIV-IIIb) [%] | inhibition at 2 µM (HIV-IIIb) [%] | CC50 at 5 days [1] [µM] |
| --- | --- | --- | --- |
| CC(=O)Nc1nn(CC(=O)N[C@@H](Cc2cc(F)cc(F)c2)c2nc(C#CC(C)(C)O)ccc2-c2ccc(Cl)c3c(NS(C)(=O)=O)nn(C)c23)c2c1[C@H]1C[C@H]1C2(F)F [Compound 163, 2-((3bS,4aR)-3-acetamido-5,5-difluoro-3b,4,4a,5-tetrahydro-1H-cyclopropa[3,4]cyclopenta[1,2-c]pyrazol-1-yl)-N—((S)-1-(3-(4-chloro-1-methyl-3-(methylsulfonamido)-1H-indazol-7-yl)-6-(3-hydroxy-3-methylbut-1-yn-1-yl)pyridin-2-yl)-2-(3,5-difluorophenyl)ethyl)acetamide] | 79 | 86 | 8.85 |
| CN(C)C(=O)c1nn(CC(=O)N[C@@H](Cc2cc(F)cc(F)c2)c2nc(C#CC(C)(C)O)ccc2-c2ccc(Cl)c3c(NS(C)(=O)=O)nn(C)c23)c2c1[C@H]1C[C@H]1C2(F)F [Compound 164, (3bS,4aR)-1-(2-(((S)-1-(3-(4-chloro-1-methyl-3-(methylsulfonamido)-1H-indazol-7-yl)-6-(3-hydroxy-3-methylbut-1-yn-1-yl)pyridin-2-yl)-2-(3,5-difluorophenyl)ethyl)amino)-2-oxoethyl)-5,5-difluoro-N,N-dimethyl-3b,4,4a,5-tetrahydro-1H-cyclopropa[3,4]cyclopenta[1,2-c]pyrazole-3-carboxamide] | 96 | 97 | 40.5 |
| CNC(=O)c1nn(CC(=O)N[C@@H](Cc2cc(F)cc(F)c2)c2nc(C#CC(C)(C)O)ccc2-c2ccc(Cl)c3c(NS(C)(=O)=O)nn(C)c23)c2c1[C@H]1C[C@H]1C2(F)F [Compound 165, (3bS,4aR)-1-(2-(((S)-1-(3-(4-chloro-1-methyl-3-(methylsulfonamido)-1H-indazol-7-yl)-6-(3-hydroxy-3-methylbut-1-yn-1-yl)pyridin-2-yl)-2-(3,5-difluorophenyl)ethyl)amino)-2-oxoethyl)-5,5-difluoro-N-methyl-3b,4,4a,5-tetrahydro-1H-cyclopropa[3,4]cyclopenta[1,2-c]pyrazole-3-carboxamide] | 72 | 72 | 5.46 |
| Cn1nc(NS(C)(=O)=O)c2c(Cl)ccc(-c3ccc(C#CC(C)(O)CO)nc3[C@H](Cc3cc(F)cc(F)c3)NC(=O)Cn3nc(C(F)F)c4c3C(F)(F)[C@@H]3C[C@H]43)c21 (stereo partly drawn) [Compound 166, N-((1S)-1-(3-(4-chloro-1-methyl-3-(methylsulfonamido)-1H-indazol-7-yl)-6-(3,4-dihydroxy-3-methylbut-1-yn-1-yl)pyridin-2-yl)-2-(3,5-difluorophenyl)ethyl)-2-((3b-S,4aR)-3-(difluoromethyl)-5,5-difluoro-3b,4,4a,5-tetrahydro-1H-cyclopropa[3,4]cyclopenta[1,2-c]pyrazol-1-yl)acetamide] | 92 | 92 | 24.4 |
| Cc1c(CCO)c(C2CC2)nn1CC(=O)N[C@@H](Cc1cc(F)cc(F)c1)c1nc(C#CC(C)(C)O)ccc1-c1ccc(Cl)c2c(NS(C)(=O)=O)nn(C)c12 [Compound 167, (S)—N-(1-(3-(4 chloro-1-methyl-3-(methylsulfonamido)-1H-indazol-7-yl)-6-(3-hydroxy-3-methylbut-1-yn-1-yl)pyridin-2-yl)-2-(3,5-difluorophenyl)ethyl)-2-(3-cyclopropyl-4-(2-hydroxyethyl)-5-methyl-1H-pyrazol-1-yl)acetamide] | 93 | 93 | 34.1 |
| Cn1nc(NS(C)(=O)=O)c2c(Cl)ccc(-c3ccc(-c4cnn(C(C)(C)C)c4)nc3[C@H](Cc3cc(F)cc(F)c3)NC(=O)Cn3nc(C(F)F)c4c3C(F)(F)[C@@H]3C[C@H]43)c21 [Compound 168B, N—((S)-1-(6-(1-(tert-butyl)-1H-pyrazol-4-yl)-3-(4-chloro-1-methyl-3-(methylsulfonamido)-1H-indazol-7-yl)pyridin-2-yl)-2-(3,5-difluorophenyl)ethyl)-2-((3b-S,4aR)-3-(difluoromethyl)-5,5-difluoro-3b,4,4a,5-tetrahydro-1H-cyclopropa[3,4]cyclopenta[1,2-c]pyrazol-1-yl)acetamide] | 90 | 90 | > 53.2 |
| Cn1nc(NS(C)(=O)=O)c2c(Cl)ccc(-c3ccc(C#CC(O)(CF)CF)nc3[C@H](Cc3cc(F)cc(F)c3)NC(=O)Cn3nc(C(F)F)c4c3C(F)(F)[C@@H]3C[C@H]43)c21 [Compound 170, N—((S)-1-(3-(4-chloro-1-methyl-3-(methylsulfonamido)-1H-indazol-7-yl)-6-(4-fluoro-3-(fluoromethyl)-3-hydroxybut-1-yn-1-yl)pyridin-2-yl)-2-(3,5-difluorophenyl)ethyl)-2-((3b-S,4aR)-3-(difluoromethyl)-5,5-difluoro-3b,4,4a,5-tetrahydro-1H-cyclopropa[3,4]cyclopenta[1,2-c]pyrazol-1-yl)acetamide] | 88 | 88 | 17 |
| CC(C)n1cc(-c2ccc(-c3ccc(Cl)c4c(NS(C)(=O)=O)nn(C)c34)c([C@H](Cc3cc(F)cc(F)c3)NC(=O)Cn3nc(C(F)(F)F)c4c3C(F)(F)[C@@H]3C[C@H]43)n2)cn1 [Compound 174, N—((S)-1-(3-(4-chloro-1-methyl-3-(methylsulfonamido)-1H-indazol-7-yl)-6-(1-isopropyl-1H-pyrazol-4-yl)pyridin-2-yl)-2-(3,5-difluorophenyl)ethyl)-2-((3bS,4aR)-5,5-difluoro-3-(trifluoromethyl)-3b,4,4a,5-tetrahydro-1H-cyclopropa[3,4]cyclopenta[1,2-c]pyrazol-1-yl)acetamide] | 85 | 85 | > 53.2 |
| Cn1nccc1-c1ccc(-c2ccc(Cl)c3c(NS(C)(=O)=O)nn(C)c23)c([C@H](Cc2cc(F)cc(F)c2)NC(=O)Cn2nc(C(F)(F)F)c3c2C(F)(F)[C@@H]2C[C@H]32)n1 [Compound 175, N—((S)-1-(3-(4-chloro-1-methyl-3-(methylsulfonamido)-1H-indazol-7-yl)-6-(1-methyl-1H-pyrazol-5-yl)pyridin-2-yl)-2-(3,5-difluorophenyl)ethyl)-2-((3b-S,4aR)-5,5-difluoro-3-(trifluoromethyl)-3b,4,4a,5-tetrahydro-1H-cyclopropa[3,4]cyclopenta[1,2-c]pyrazol-1-yl)acetamide] | 95 | 95 | > 46.1 |
| Cn1nc(NS(C)(=O)=O)c2c(Cl)ccc(-c3ccc(-c4ncccn4)nc3[C@H](Cc3cc(F)cc(F)c3)NC(=O)Cn3nc(C(F)(F)F)c4c3C(F)(F)[C@@H]3C[C@H]43)c21 [Compound 176, N—((S)-1-(3-(4-chloro-1-methyl-3-(methylsulfonamido)-1H-indazol-7-yl)-6-(pyrimidin-2-yl)pyridin-2-yl)-2-(3,5-difluorophenyl)ethyl)-2-((3b-S,4aR)-5,5-difluoro-3-(trifluoromethyl)-3b,4,4a,5-tetrahydro-1H-cyclopropa[3,4]cyclopenta[1,2-c]pyrazol-1-yl)acetamide] | 100 | 100 | 17.4 |
| Cn1nc(NS(C)(=O)=O)c2c(Cl)ccc(-c3cc(-c4ccccc4)cnc3[C@H](Cc3cc(F)cc(F)c3)NC(=O)Cn3nc(C(F)F)c4c3C(F)(F)[C@@H]3C[C@H]43)c21 [Compound 177D, N—((S)-1-(3-(4-chloro-1-methyl-3-(methylsulfonamido)-1H-indazol-7-yl)-5-phenylpyridin-2-yl)-2-(3,5-difluorophenyl)ethyl)-2-((3b-S,4aR)-3-(difluoromethyl)-5,5-difluoro-3b,4,4a,5-tetrahydro-1H-cyclopropa[3,4]cyclopenta[1,2-c]pyrazol-1-yl)acetamide] | 100 | 100 | > 53.2 |
| Cn1nc(NS(C)(=O)=O)c2c(Cl)ccc(-c3ccc(-c4cnc(C(C)(C)C)s4)nc3[C@H](Cc3cc(F)cc(F)c3)NC(=O)Cn3nc(C(F)(F)F)c4c3C(F)(F)[C@@H]3C[C@H]43)c21 [Compound 178, N—((S)-1-(6-(2-(tert-butyl)thiazol-5-yl)-3-(4-chloro-1-methyl-3-(methylsulfonamido)-1H-indazol-7-yl)pyridin-2-yl)-2-(3,5-difluorophenyl)ethyl)-2-((3b-S,4aR)-5,5-difluoro-3-(trifluoromethyl)-3b,4,4a,5-tetrahydro-1H-cyclopropa[3,4]cyclopenta[1,2-c]pyrazol-1-yl)acetamide] | 95 | 100 | 14 |
| Cn1cnc(-c2ccc(-c3ccc(Cl)c4c(NS(C)(=O)=O)nn(C)c34)c([C@H](Cc3cc(F)cc(F)c3)NC(=O)Cn3nc(C(F)(F)F)c4c3C(F)(F)[C@@H]3C[C@H]43)n2)c1 [Compound 179, N—((S)-1-(3-(4-chloro-1-methyl-3-(methylsulfonamido)-1H-indazol-7-yl)-6-(1-methyl-1H-imidazol-4-yl)pyridin-2-yl)-2-(3,5-difluorophenyl)ethyl)-2-((3b-S,4aR)-5,5-difluoro-3-(trifluoromethyl)-3b,4,4a,5-tetrahydro-1H-cyclopropa[3,4]cyclopenta[1,2-c]pyrazol-1-yl)acetamide] | 100 | 100 | 15.5 |
